The target of one experiment is T1, human CSNK1D (Homo sapiens, UniProt P48730).
T1 construct: expressed in transfected cells
Put plainly: Whole Cell nBRET CSNK1D Binding Assay. The following applies: living CHO cells stably expressing human CSNK1D tagged with nanoluciferase; NanoBret tracer 130 nM; 2 hours at 37 C.

Experiment [1] addresses T2, human recombinant GST cleaved CSNK1D (Homo sapiens, UniProt P48730).
T2 construct: GST (cleaved yes); purchased University of Dundee clone DU 19064
Kind of experiment: Purified Enzyme Assay (ADP-Glo CSNK1D Kinase Assay). The format is biochemical. Conditions: 2 nM CSNK1D; peptide substrate 150 μM; ATP 20 μM; 45 minutes at room temperature. A digest of the protocol:
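GST-cleaved human recombinant CSNK1D phosphorylates peptide PLSRTL-pS-VASLPGL with ATP; compounds added in dose-response, 45 min at room temperature. ADP formed measured by ADP-Glo luminescence and converted to percent activity.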
In general terms: ADP-Glo first removes unused ATP, then detects ADP through luciferase.

T1 sequence (P48730 whole entry): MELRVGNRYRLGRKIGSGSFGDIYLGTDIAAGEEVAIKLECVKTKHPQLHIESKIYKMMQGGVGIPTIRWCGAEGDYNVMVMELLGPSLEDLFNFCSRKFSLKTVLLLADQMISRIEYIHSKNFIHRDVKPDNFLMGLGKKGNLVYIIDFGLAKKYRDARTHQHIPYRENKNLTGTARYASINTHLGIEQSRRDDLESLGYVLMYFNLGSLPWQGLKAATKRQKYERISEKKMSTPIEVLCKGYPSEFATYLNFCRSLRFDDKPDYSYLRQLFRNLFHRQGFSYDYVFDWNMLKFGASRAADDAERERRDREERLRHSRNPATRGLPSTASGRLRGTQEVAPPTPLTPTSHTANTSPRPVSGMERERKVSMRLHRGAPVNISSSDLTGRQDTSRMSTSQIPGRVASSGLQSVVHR
T2 sequence (P48730 whole entry): as above

For `[2H]C([2H])([2H])C1(C([2H])([2H])[2H])Cn2nc(-c3ccc(F)cn3)c(-c3c(F)c(C)nc4[nH]ncc34)c2CO1` [Example 406, 3-(5-Fluoro-6-methyl-1H-pyrazolo[3,4-b]pyridin-4-yl)-2-(5-fluoropyridin-2-yl)-6,6-bis(methyl-d3)-6,7-dihydro-4H-pyrazolo[5,1-c][1,4]oxazine], the IC50 was 23 nM at human CSNK1D and 3 nM in experiment [1].

For `CC1(C)Cc2c(-c3ccnc4[nH]nc(Cl)c34)c(-c3ccc(F)cn3)nn2C1` [Example 237, 3-Chloro-4-(2-(5-fluoropyridin-2-yl)-5,5-dimethyl-5,6-dihydro-4H-pyrrolo[1,2-b]pyrazol-3-yl)-1H-pyrazolo[3,4-b]pyridine], the IC50 on human CSNK1D turned out to be 13 nM; in experiment [1], 4 nM.

For `Cc1cc(-c2c(-c3ccc(F)cn3)nn3c2CNCC3)c2cn[nH]c2n1` [Example 2, 4-[2-(5-Fluoro-2-pyridyl)-4,5,6,7-tetrahydropyrazolo[1,5-a]pyrazin-3-yl]-6-methyl-1H-pyrazolo[3,4-b]pyridine], the IC50 came to 528 nM on human CSNK1D and 19 nM in experiment [1].

`Fc1ccc(-c2nn3c(c2-c2ccnc4[nH]ncc24)C[C@H]2C[C@H]23)cc1` [Example 267, (4aR,5aR)-2-(4-Fluorophenyl)-3-(1H-pyrazolo[3,4-b]pyridin-4-yl)-4,4a,5,5a-tetrahydrocyclopropa[4,5]pyrrolo[1,2-b]pyrazole]: the results for the IC50 (at human CSNK1D; in experiment [1]) were 131 nM and 6 nM, respectively.

Take `[2H]C([2H])([2H])C1(C([2H])([2H])[2H])Cn2nc(-c3ccc(F)cn3)c(-c3c(F)c(C)nc4[nH]nc(Cl)c34)c2CO1` [Example 408, 3-(3-Chloro-5-fluoro-6-methyl-1H-pyrazolo[3,4-b]pyridin-4-yl)-2-(5-fluoropyridin-2-yl)-6,6-bis(methyl-d3)-6,7-dihydro-4H-pyrazolo[5,1-c][1,4]oxazine]: the results for the IC50 (on human CSNK1D; in experiment [1]) were 26 nM and 6 nM, respectively.

Turning to `Cc1cc(-c2c(-c3ccc(F)cn3)nn3c2OCC(C)C3)c2cn[nH]c2n1` (centres unmarked) [Example 197, 2-(5-Fluoropyridin-2-yl)-6-methyl-3-(6-methyl-1H-pyrazolo[3,4-b]pyridin-4-yl)-6,7-dihydro-5H-pyrazolo[5,1-b][1,3]oxazine], the IC50 on human CSNK1D is 38 nM; in experiment [1] it was 3 nM.

For the molecule `Cc1cc(-c2c(-c3ccc(F)cn3)nn3c2CC2(C3)CC2(F)F)c2cn[nH]c2n1` (single isomer, unassigned) [Example 261, (*R)-1′,1′-Difluoro-2-(5-fluoro-2-pyridyl)-3-(6-methyl-1H-pyrazolo[3,4-b]pyridin-4-yl)spiro[4,6-dihydropyrrolo[1,2-b]pyrazole-5,2′-cyclopropane]], the IC50 is 2670 nM at human CSNK1D and 63 nM in experiment [1].

In the case of `CCC(=O)Nc1cc(-c2c(-c3ccc(F)cn3)nn3c2COC(C)(C)C3)c(C)cn1` [Example 379, N-(4-(2-(5-Fluoropyridin-2-yl)-6,6-dimethyl-6,7-dihydro-4H-pyrazolo[5,1-c][1,4]oxazin-3-yl)-5-methylpyridin-2-yl)propionamide], the IC50 at human CSNK1D is 738 nM; in experiment [1], 41 nM.

For the molecule `Nc1cc(-c2c(-c3ccc(F)cc3)nn3c2CCC(F)(F)C3)ccn1` [Example 41, 4-(6,6-Difluoro-2-(4-fluorophenyl)-4,5,6,7-tetrahydropyrazolo[1,5-a]pyridin-3-yl)pyridin-2-amine], the IC50 was determined as 75 nM at human CSNK1D and 8 nM in experiment [1].

With `Cc1cc(-c2c(-c3ccc(F)cn3)nn3c2O[C@H](C)C[C@H]3C)c2cn[nH]c2n1` (single isomer, unassigned) [Example 208, (5*R,7*R)-2-(5-Fluoro-2-pyridyl)-5,7-dimethyl-3-(6-methyl-1H-pyrazolo[3,4-b]pyridin-4-yl)-6,7-dihydro-5H-pyrazolo[5,1-b][1,3]oxazine], the IC50 worked out at 821 nM on human CSNK1D and 26 nM in experiment [1].

As a reminder, the IC50 is the concentration that gives 50% inhibition.
